Values belong to the compound of their own block, whether it stands above or below them.
Key:
Citrus nematodes = assay: Nematicidal effects of citral in soil, Citrus nematodes; format: in vivo, citrus nematode
Experimental: Methodology: Nematodes used for the analysis originated from commercial agricultural crop soils. Species of nematode included root-knot and citrus. Prior to commencement of each study the nematodes were counted and evaluated for viability. In each experiment soil samples were infected with only one species of nematode. Three measured quantities of soil (250 g) were placed into large PVC plastic containers.
Soil moisture was assessed by weighing a soil sample and then drying the sample in a drying oven. Soil moisture content was confirmed using a “Hydroscout” instrument. In all cases the moisture content measured by both methods was within the resolution of the instruments. By determining the water content of the soil it was possible to calculate the volume of terpene solution which would be diluted when mixed with the soil.
These dilutions were by volume not the more commonly used mass ratios. The reason for using volume dilutions was simply one of convenience enabling the use of a micropipette or cylinder to measure the terpene. The mass ratio of the ‘in soil’ and ‘in water’ solution could be simply calculated by multiplying the ppm of terpene by it's density (0.92 g/ml).
The terpene solution was added to each test tube containing a weighed sample of nematode infected soil. The terpene solution and soil were mixed by inverting the test tube several times. The test tubes containing the soil and terpene solution were left to stand in racks in the laboratory for 48 hours-72 hours depending on the survival of the untreated nematodes. In each experiment a control group was treated with distilled water. The % mortality (kill) rates in the treatment groups was compared with the control population.
The nematodes were extracted by “Sieving & mist extraction” (Ayoub, S. M. 1977) prior to being counted.
Criteria for Evaluation: Nematode counts were performed to determine the proportion of nematodes which survived and were killed in each treatment group.
The results are shown below on Table 17 to 19.

Root Knot nematodes = assay: Nematicidal effects of citral in soil, Root Knot nematodes; format: in vivo, root-knot nematode
Experimental: Methodology: Nematodes used for the analysis originated from commercial agricultural crop soils. Species of nematode included root-knot and citrus. Prior to commencement of each study the nematodes were counted and evaluated for viability. In each experiment soil samples were infected with only one species of nematode. Three measured quantities of soil (250 g) were placed into large PVC plastic containers. Soil moisture was assessed by weighing a soil sample and then drying the sample in a drying oven. Soil moisture content was confirmed using a “Hydroscout” instrument. In all cases the moisture content measured by both methods was within the resolution of the instruments. By determining the water content of the soil it was possible to calculate the volume of terpene solution which would be diluted when mixed with the soil. […] These dilutions were by volume not the more commonly used mass ratios. The reason for using volume dilutions was simply one of convenience enabling the use of a micropipette or cylinder to measure the terpene. The mass ratio of the ‘in soil’ and ‘in water’ solution could be simply calculated by multiplying the ppm of terpene by it's density (0.92 g/ml). The terpene solution was added to each test tube containing a weighed sample of nematode infected soil. The terpene solution and soil were mixed by inverting the test tube several times. […] In each experiment a control group was treated with distilled water. The % mortality (kill) rates in the treatment groups was compared with the control population. The nematodes were extracted by “Sieving & mist extraction” (Ayoub, S. M. 1977) prior to being counted. Criteria for Evaluation: Nematode counts were performed to determine the proportion of nematodes which survived and were killed in each treatment group. […] The results are shown below on Table 17 to 19. The experiment was performed once again, this time with the following changes: • Dose range of 125 ppm-750 ppm was used. • Glass tubes containing 150 g of soil were used as opposed to PVC tubes in previous experiments.

[1] = Xanthan gum as interstitial hydrocolloid: dispersion of dried encapsulated L-carvone particles when re-hydrated; format: physicochemical; settings: dispersion on re-hydration, SAF 1 g, L-carvone emulsion 1.1 g
Experimental: The following protocol was adopted to evaluate the effect of an interstitial hydrocolloid to increase dried hollow glucan particle encapsulated terpene formulations to disperse when hydrated. • SAF Mannan™ particles • 0.1% Tween 80 • L-carvone • Xanthan Gum—1% w/v in 0.1% Tween 80
The effect of increasing xanthan gum levels on dry hollow glucan particle encapsulated L-carvone dispersion in water was assessed by loading L-carvone into SAF Mannan by incubating 1.1 g of an L-carvone emulsion (L-carvone:water:surfactant ratio of 0.75:0.3:0.05) with 1 g SAF Mannan and 4.4 g 0.1% Tween 80 containing 0-1% xanthan gum as shown in Table 32.

Compound: CC(C)=CCCC(C)=CC=O [Citral, citral]
Mean % killed (Citrus nematodes; first experiment (Table 16), 62.5 ppm, 8 replicates): −2.84% | Mean % killed (Citrus nematodes; first experiment (Table 16), 125 ppm, 8 replicates): 46.29% | Mean % killed (Citrus nematodes; first experiment (Table 16), 250 ppm, 8 replicates): 91.66% | Mean % killed (Citrus nematodes; first experiment (Table 16), 500 ppm, 8 replicates): 95.53% | Mean % killed (Citrus nematodes; repeated protocol (Table 19), 500 ppm, N 10): 99.9% | Mean % killed (Root Knot nematodes; first experiment (Table 15), soil, 62.5 ppm, 8 replicates): 18.87% | Mean % killed (Root Knot nematodes; first experiment (Table 15), soil, 125 ppm, 8 replicates): 4.34% | Mean % killed (Root Knot nematodes; first experiment (Table 15), soil, 250 ppm, 8 replicates): 23.66% | Mean % killed (Root Knot nematodes; first experiment (Table 15), soil, 500 ppm, 8 replicates): 67.10% | Mean % killed (Root Knot nematodes; repeated protocol (Table 18), soil, 500 ppm, N 10): 99.6% | Mean % killed (Root Knot nematodes; third experiment (Table 20), glass tubes, 150 g of soil, 125 ppm, N 8): 74.51% | Mean % killed (Root Knot nematodes; third experiment (Table 20), glass tubes, 150 g of soil, 250 ppm, N 8): 97.37% | Mean % killed (Root Knot nematodes; third experiment (Table 20), glass tubes, 150 g of soil, 500 ppm, N 8): 100% | Mean % killed (Root Knot nematodes; third experiment (Table 20), glass tubes, 150 g of soil, 750 ppm, N 8): 99.42%

Visual Observations ([1]; 0.1% Tween-80 0 g, 1% xanthan 4.4 g): Finer Uniform | Visual Observations ([1]; 0.1% Tween-80 2.2 g, 1% xanthan 2.2 g): Finer Uniform | Visual Observations ([1]; 0.1% Tween-80 3.3 g, 1% xanthan 1.1 g): Finer Uniform | Visual Observations ([1]; 0.1% Tween-80 3.85 g, 1% xanthan 0.55 g): Uniform | Visual Observations ([1]; 0.1% Tween-80 4.12 g, 1% xanthan 0.28 g): Uniform | Visual Observations ([1]; 0.1% Tween-80 4.26 g, 1% xanthan 0.14 g): Uniform | Visual Observations ([1]; 0.1% Tween-80 4.33 g, 1% xanthan 0.07 g): Uniform | Visual Observations ([1]; 0.1% Tween-80 4.4 g, 1% xanthan 0 g): Large non-
Compound: L-carvone
